Source: patent US4859452A (priority 1987, dated 1989)
Like-named read-outs stand apart in the source and are kept apart here.

How the values were obtained:
[1] = system: ornithine decarboxylase (ODC); settings: cited from earlier work
[2] = Toxicity of continuous i.v. DFMO infusion for 12 days in tumor-bearing and non-tumor-bearing rats; type: in vivo, rat
Text: FIG. 3. […] Bars indicate standard deviation.
In the above described rat model, a continuous infusion of DFMO was given through a central venous catheter.

[3] = system: DFMO-Induced Thrombocytopenia; settings: rat, in vivo
Protocol: (§1) Central venous catheters were inserted into Fisher 344 male rats. […] This concentration is equimolar to the arginine concentration in 10% Travasol. After 12 days of infusion the rats were sacrificed and platelet counts were determined in peripheral blood.

[4] = human, in vivo
Text: FIG. 4. Platelet counts plotted against days of continuous i.v. DFMO infusion in patients with advanced colorectal carcinoma. […] The paired points are connected by a straight line.
There was no incidence of nausea, vomiting or diarrhea.

[5] = system: MCA sarcoma
[6] = RBC putrescine in tumor-bearing versus non tumor-bearing rats infused with feeding solutions; settings: NTB rats; p<0.05
Text: A methylcholanthrene-induced fibrosarcoma (0.17 g) was implanted as a brei into the right flank under anesthesia and the animals were fed a chow diet for 21 days. When the tumors were at least 1.0 cm in width, two-dimensional measurements with calipers were instituted and the equation, length (cm)×(width [cm])^2 ×1/2=grams of tumor tissue, was used to estimate tumor weight. […] The animals were then allowed to recover overnight and continuous infusions were started the next morning. […] After 6 days of continuous infusion, the animals were sacrificed by aortic bleeding. Liver and tumor were excised and weighed and kept frozen at -70° C. until assays were done. Only viable, nonnecrotic tumor tissue was saved and assayed.

[7] = in words; tumor and RBC
Protocol: After obtaining the blood sample by venipuncture, or some other suitable means, blood hematocrit is determined and the blood is centrifuged for 10 minutes at 500 g. The plasma is removed for albumin determination and the remaining cells are washed with an equal volume of cold 0.9% NaCl and centrifuged at 200 g for 15 minutes. The buffy coat is then carefully aspirated along with the supernatant and discarded. After thoroughly mixing the packed RBC, a 1.0 ml aliquot is extracted for polyamine analysis. While shaking continuously with a Vortex mixer, 2.5 ml of freshly prepared 6% trichloroacetic acid (TCA) is added followed by 60 ul of 100% TCA. This is done to avoid insufficient mixing if 100% TCA is added directly to RBC. The samples are mixed thoroughly for a minimum of 3 minutes and frozen at -70° C. if further extraction steps are performed. The samples are thawed and centrifuged at 200×g for 15 minutes. The supernatant is then transferred to tubes containing 40 ul of concentrated HCl. The samples are washed twice with anhydrous ether and dried. The pellets are dissolved in 100 ul of 0.5 N HCl and centrifuged at 200 g. The clear supernatant is then analyzed for polyamines using, for example, a Durrum D-500 amino acid analyzer.
A methylcholanthrene-induced fibrosarcoma (0.17 g) was implanted as a brei into the right flank under anesthesia and the animals were fed a chow diet for 21 days. […]

[8] = system: DFMO-Induced Thrombocytopenia; assay: Influence of ornithine co-administration on DFMO-induced thrombocytopenia in the rat; settings: in words
Protocol: as §1

In the case of `NCCCC(N)(C(=O)O)C(F)F` (stereo not shown) [DFMO, Difluoromethylornithine], the ODC inhibition mode [1] is listed as “irreversible inhibitor of ODC”, the “small intestinal mucosa histology” value ([2]; rat, in vivo) is listed as “histological evidence of small intestinal mucosal atrophy” and the “white cell count and hematocrit changes” value ([2]; rat, in vivo) is listed as “not significantly altered”. For the same compound, the clinical toxicity ([2]; rats, 12 day study) was “no significant clinical toxicity”, the “effect on platelet suppression / platelet count” value [3] was “significant decrease in platelet count as compared with the saline treatment” and the “decreased hearing acuity, patients” value [4] was “two”. For the same compound, the hematocrit [4] was “Significant suppression of the hematocrit was also noted with a trend toward dose related suppression”, the “nausea, vomiting or diarrhea” value [4] was “no incidence” and the “platelet suppression, 8 g dose compared with 6 g dose” value [4] was “significantly greater platelet at the 8 g dose as compared with the 6 g dose”. For the same compound, the “time to resolution of all toxicities after discontinuing infusion” value [4] was “two”, the white cell count [4] was “not affected by either dose” and the tumor growth ([5]; MCA sarcoma) was “reduces the growth rate of an MCA sarcoma but does not produce tumor regression”. For the same compound, the “effect on peripheral platelet counts” value ([5]; rat, in vivo) was “without suppressing peripheral platelet counts”.

With `N=C(N)NCCC[C@H](N)C(=O)O` [arginine] the “increase in RBC putrescine levels versus chow or essential amino acids only” value [6] was “significantly greater (p<0.05) than those receiving chow or essential amino acids only” and the “comparison of ornithine and arginine for increase in polyamine levels” value [7] was “both appeared to promote an increase in tumor-related levels”.

For `NCCC[C@H](N)C(=O)O` [ornithine], the “effect on platelet suppression / platelet count” value [8] was “significant reversal in the platelet suppression”.
